These results are taken from ChEMBL document CHEMBL3526094, “Methadone N-demethylation by the common CYP2B6 allelic variant CYP2B6.6” (Drug Metab Dispos, 2013).

Each structure is given as a SMILES string.

Format in all cases: ADME
What all share (conditions): human, recombinant enzyme

Data set [1] in a line: Drug metabolism assessed as recombinant CYP2B6.1 (unknown origin) expressed in insect cell microsomes-mediated R-2-ethyl-1,5-dimethyl-3,3-diphenylpyrrolidine formation at 0.25 to 2 uM after 10 mins high-pressure liquid chromatography analysis.
Data set [2] in a line: Drug metabolism assessed as recombinant CYP2B6.1 (unknown origin) expressed in insect cell microsomes-mediated S-2-ethyl-1,5-dimethyl-3,3-diphenylpyrrolidine formation at 0.25 to 2 uM after 10 mins high-pressure liquid chromatography analysis.
A short description of data set [3]: Drug metabolism assessed as recombinant CYP2B6.6 (unknown origin) expressed in insect cell microsomes-mediated R-2-ethyl-1,5-dimethyl-3,3-diphenylpyrrolidine formation at 0.25 to 2 uM after 10 mins high-pressure liquid chromatography analysis.
Data set [4] in a line: Drug metabolism assessed as recombinant CYP2B6.6 (unknown origin) expressed in insect cell microsomes-mediated S-2-ethyl-1,5-dimethyl-3,3-diphenylpyrrolidine formation at 0.25 to 2 uM after 10 mins high-pressure liquid chromatography analysis.

Turning to `CCC(=O)C(CC(C)N(C)C)(c1ccccc1)c1ccccc1` (stereo in doubt) [METHADONE], the Ks in data set [1] was 75 µM; in data set [2] it was 25 µM; in data set [3] it was 97 µM; in data set [4], 40 µM.

On to `CCC(=O)C(CC(C)N(C)C)(c1ccccc1)c1ccccc1` (racemic) [METHADONE], for which the Ks amounted to 40 µM in data set [1], 13 µM in data set [2], 57 µM in data set [3] and 20 µM in data set [4].
